Legend:
Jurkat cell = assay: Jurkat IL-2 Production Assay; assay type: cell-based; details: Homo sapiens, serum condition (1% FBS/PHA or 30% FBS/PMA-ionomycin) not specified
Procedure: Jurkat IL-2 Production Assay
Cell: Jurkat cell (ATCC) was grown in RPMI 1640 with 10% FBS and 1% penicillin/streptomycin. The cell density was kept at 1.2˜18×10^6/mL in culture flask before seeding into culture plate, and the cell density in the plate was 0.5×10^6/200 μL/well.
Culture media: RPMI 1640 with 1% FBS or 30% FBS for high serum assay.
Test compound: serial dilution was done in 100% DMSO, and intermediate dilution was done with RPMI 1640 medium with 1% FBS. The DMSO final concentration in culture well was 0.25%.
Stimulant: PHA (Sigma#L9017-10MG) was used for the assay with 1% F/BS in culture medium, and added after 10 minutes exposure of cell to compound/DMSO. The PHA final concentration in culture well was 5 μg/mL. PMA (Sigma#P-8139 5MG)/Ionomycin (Sigma# I0634-5MG) was used for the assay with 30% FBS in culture medium, and added at same time point as the 1% FBS culture assay. The final concentration of PMA was […], and lonomycin final concentration was 500 ng/mL.
Incubation: at 37° C. with 5% CO2 and 95% humidity for 18 h˜20 h.
IC50: IC50 was calculated with the data analysis software XLfit4, General Pharmacology model 251.

human whole blood = assay: Human Whole Blood (HWB) Assay, inhibition of T cell IL-2 production; assay type: cell-based; details: IL-2 in plasma, human whole blood stimulated with 10 μM Thapsigargin overnight, AlphaLISA
Procedure: Human Whole Blood (HWB) Assay
Inhibition of T cell IL-2 production CRAC compounds were tested in human whole blood from normal donors. 200 μl of human whole blood was aliquoted into each well of a round bottom 96 well plate. Concentration-response curves were generated for test compounds and CsA (as controls) by performing serial dilutions of the compounds and incubating each concentration in a single well for 30 min (experiment was performed in triplicate). Following incubation, the blood was stimulated with 10 μM Thapsigargin (SIGMA) overnight at 37° C. IL-2 concentrations in the plasma were determined by AlphaLISA IL-2 assay (Perkin Elmer). Data analysis was performed using GraphPad PRISM5.

SMILES	IC50 (Jurkat cell)	IC50 (human whole blood)
CCn1nc(C(F)(F)F)cc1-c1cnc2c(c1)OCC(c1c(F)cccc1F)N2 (stereo not shown) [Example 1, 3-(2,6-Difluoro-phenyl)-7-(2-ethyl-5-trifluoromethyl-2H-pyrazol-3-yl)-3,4-dihydro-2H-pyrido[3,2-b][1,4]oxazine]	140 nM	–
CCn1nc(-c2cccnc2)cc1-c1cnc2c(c1)OCC(c1c(F)cccc1F)N2 (stereo not shown) [Example 2, 3-(2,6-Difluoro-phenyl)-7-(2-ethyl-5-pyridin-3-yl-2H-pyrazol-3-yl)-3,4-dihydro-2H-pyrido[3,2-b][1,4]oxazine]	–	2680 nM
Cc1sc(-c2ccccn2)nc1-c1cnc2c(c1)OCC(c1c(F)cccc1F)N2 (stereo not shown) [Example 4, 3-(2,6-Difluoro-phenyl)-7-(5-methyl-2-pyridin-2-yl-thiazol-4-yl)-3,4-dihydro-2H-pyrido[3,2-b][1,4]oxazine]	–	6300 nM
Cc1sc(-c2ccncc2)nc1-c1cnc2c(c1)OCC(c1c(F)cccc1F)N2 (stereo not shown) [Example 6, 3-(2,6-Difluoro-phenyl)-7-(5-methyl-2-pyridin-4-yl-thiazol-4-yl)-3,4-dihydro-2H-pyrido[3,2-b][1,4]oxazine]	–	4520 nM
Cc1ccc(-c2ncco2)cc1-c1cnc2c(c1)OCC(c1c(F)cccc1F)N2 (stereo not shown) [Example 7, 3-(2,6-Difluoro-phenyl)-7-(2-methyl-5-oxazol-2-yl-phenyl)-3,4-dihydro-2H-pyrido[3,2-b][1,4]oxazine]	–	8160 nM

The next lines start with the values.

IC50 (Jurkat cell)	IC50 (human whole blood)	SMILES
–	560 nM	CCc1sc(-c2cccnc2)nc1-c1cnc2c(c1)OCC(c1c(F)cccc1F)N2 (stereo not shown) [Example 5, 3-(2,6-Difluoro-phenyl)-7-(5-ethyl-2-pyridin-3-yl-thiazol-4-yl)-3,4-dihydro-2H-pyrido[3,2-b][1,4]oxazine]
–	2400 nM	CCn1nc(-c2cnccn2)cc1-c1cnc2c(c1)OCC(c1c(F)cccc1F)N2 (stereo not shown) [Example 3, 3-(2,6-Difluoro-phenyl)-7-(2-ethyl-5-pyrazin-2-yl-2H-pyrazol-3-yl)-3,4-dihydro-2H-pyrido[3,2-b][1,4]oxazine]
